Source: publication PMC12523843, “Kuwanon A Targeted YWHAB in Hepatocellular Carcinoma Cells to Inhibit the Raf/MEK/ERK Signaling Pathway” (Cells, 2025)

Columns and labels:
[1] = tested on: YWHAB knockdown HCC cells; test: MTT IC50 in YWHAB knockdown HCC cells; type: cell-based, human; conditions: 48 h, vs scramble
Procedure: Cell viability was assessed using MTT experiments. Cells, together with KA, were seeded into 96-well plates at a density of 2000 cells per well with three replicates per condition. DMSO was used as a control. At designated time points, 20 μL of MTT (Sigma, St. Louis, MO, USA) solution was added to each well and incubated for 3 h. After removing the culture medium, 200 μL of DMSO was added to dissolve the formazan crystals. The absorbance was then measured using a microplate reader at a wavelength of 560 nm.
Short hairpin (sh) RNA targeting YWHAB was cloned into the pLKO.1-puro plasmid, with the sequences listed in Supplementary Table S1. Flag-tagged YWHAB, MYC-tagged YWHAB, and Flag-tagged Raf1 plasmids were purchased from Miaoling (Wuhan, China). Transfection was performed by introducing the specified plasmids into HEK293FT cells using Lipofectamine 2000 (Thermo, New York, NY, USA), following the manufacturer’s instructions. Viral supernatant or cells were collected two days post-transfection. For infection, HCC cells were treated with viral supernatant and polybrene (Sigma, Virginia Beach, VA, USA). After two rounds of infection, the cells were stably selected by using puromycin (Sigma, Virginia Beach, VA, USA).

[2] = tested on: MHCC97 H cells labeled with luciferase; test: In vivo imaging of pulmonary metastasis after tail vein injection; parameters: species or system BALB/c-nu mice; conditions: 30 mg/kg intraperitoneal, once every two days, 32 days
Excerpt: Thirty-six female BALB/c-nu mice, four weeks old (supplied by Slike Jingda Laboratory Animal Co., Ltd., Changsha, China; Animal qualification number: SCXK-2019-0004), were housed in an SPF room. […] Therefore, female mice were selected for this study; 12 mice were used to establish the hepatocellular carcinoma xenografts. MHCC97 H cells (1 × 10^5 cells) were slowly injected into the left lobe of the mouse liver after being anesthetized with isoflurane. Three days later, the mice received intraperitoneal injections of KA (30 mg/kg) every two days for 45 days. Control mice were administered DMSO injections. Recorded the survival status of the animals. Prior to liver collection, the mice were anesthetized with isoflurane to minimize pain and euthanized by cervical dislocation. Ethics approval serial number: IACUC-20240613-03. Animal experiments were conducted in accordance with the Guide for the Care and Use of Laboratory Animals (Ministry of Science and Technology of China, 2006).
MHCC97 H cells labeled with luciferase (1 × 10^5 cells) were injected into the 4- to 5-week-old female BALB/c-nu mice (SPF grade, average weight 16–18 g) through intravenous injection. Following the injection, luciferase substrate was delivered to the mice via intraperitoneal injection. After a 5-min period of anesthesia with isoflurane, the mice were imaged using an in vivo small animal imaging system. […]

YWHAB dimer = target: T1, YWHAB dimer (Homo sapiens, UniProt P31946); test: Blue-Native PAGE of YWHAB dimer; type: cell-based; parameters: endogenous in cells; host or cells: MHCC97 H and SMMC 7721; conditions: HCC cell lines and FLAG-YWHAB overexpressed HEK 293T cells
T1 sequence (P31946 1-246): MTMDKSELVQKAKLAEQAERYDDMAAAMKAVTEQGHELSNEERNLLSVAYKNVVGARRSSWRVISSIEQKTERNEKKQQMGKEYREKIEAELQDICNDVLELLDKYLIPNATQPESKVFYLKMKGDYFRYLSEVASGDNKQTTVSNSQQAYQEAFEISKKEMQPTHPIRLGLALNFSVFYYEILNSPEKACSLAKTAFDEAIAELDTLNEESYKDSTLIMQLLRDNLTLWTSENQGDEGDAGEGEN
Procedure: Blue/Clear Native PAGE (Real Times, Beijing, China) is an electrophoretic technique used to separate protein complexes from biological samples. Instead of SDS, Coomassie Brilliant Blue G-250 binds to the protein, imparting a negative charge, allowing separation in the PAGE gel based on the molecular weight of the proteins. HCC cells treated with KA or DMSO for 48 h were collected using a cell scraper and lysed on ice in IP cell lysis buffer for one hour. A suitable amount of 4× BN/CN-PAGE protein loading buffer and 5% G-250 stain (for loading) was added to the supernatant of the protein sample, followed by BN-PAGE electrophoresis in the Native PAGE gel. After electrophoresis and membrane transfer, the PVDF membrane (Millipore, Darmstadt, Germany) was blocked with 5% BSA for two hours at room temperature. HPR-linked primary and secondary antibodies were incubated for detection, and protein bands were visualized using the ECL detection system (Clinx, Shanghai, China)

CC(C)=CCc1c(-c2ccc(O)c3c2OC(C)(C)C=C3)oc2cc(O)cc(O)c2c1=O [KA, Kuwanon A]
IC50 of KA after knockdown of YWHAB [1]: significant increase in the IC50 | pulmonary metastasis (in vivo imaging) [2]: significantly inhibited the pulmonary metastasis | proportion of YWHAB dimer (Native-PAGE) (YWHAB dimer): proportion of YWHAB dimer had decreased
